Test results reported in ChEMBL document CHEMBL1201862, “PubChem BioAssay data set” (2004).
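Five concentrations, 48 hours, 96-well plates. Here, GI50 denotes the concentration required for 50% inhibition of growth.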 Active and inactive are the calls of the source. Cut-off read from the data, not from the text of the source: active = GI50 up to about 1.1 µM and inactive = higher.

Columns and labels:
Experiment in all cases: DTP human tumour cell line panel, 48 h
[1] = test system: ACHN
[2] = test system: CAKI-1
[3] = test system: HT-29
[4] = test system: IGROV-1
[5] = test system: K562
[6] = test system: KM12
[7] = test system: NCI-H460
[8] = test system: OVCAR-5
[9] = test system: SF-295
[10] = test system: SK-MEL-28
[11] = test system: SK-MEL-2
[12] = test system: SN12C
[13] = test system: SR
[14] = test system: TK-10
[15] = test system: U-251
[16] = test system: UACC-62
[17] = test system: HOP-92
[18] = test system: BT-549
[19] = test system: Hs-578T

Measured: GI50

COC(=O)C(=O)C(C(=O)C(=O)Nc1ccccc1C(N)=O)c1nc2ccc(C(=O)c3ccccc3)cc2nc1O (centres undefined)
inactive: [1] > 100 µM | [2] 25.9 µM | [3] > 100 µM | [4] > 100 µM | [5] 42.6 µM | [6] 67.3 µM | [7] > 100 µM | [8] > 100 µM | [9] > 100 µM | [10] > 100 µM | [11] > 100 µM | [12] > 100 µM | [13] 68.1 µM | [14] > 100 µM | [15] > 100 µM | [16] 27.6 µM

O=C(CCC(=O)Nc1ccc(Cl)c(Cl)c1)Cc1nc2ccccc2o1
inactive: [1] > 100 µM | [2] > 100 µM | [17] > 100 µM | [3] > 100 µM | [4] > 100 µM | [5] > 100 µM | [6] > 100 µM | [7] > 100 µM | [8] > 100 µM | [9] > 100 µM | [10] > 100 µM | [11] > 100 µM | [12] > 100 µM | [13] > 100 µM | [14] > 100 µM | [15] > 100 µM | [16] > 100 µM

Brc1ccc2c(c1)-c1nc3nc4c(cc3cc1CC2)CCc1ccc(Br)cc1-4
inactive: [1] > 100 µM | [18] > 100 µM | [2] > 100 µM | [17] > 100 µM | [4] > 100 µM | [5] > 100 µM | [6] 62.7 µM | [7] > 100 µM | [8] > 100 µM | [9] > 100 µM | [10] > 100 µM | [11] > 100 µM | [12] > 100 µM | [14] > 100 µM | [15] > 100 µM

CC(=O)Oc1cc2c(n(C)c1=O)CCC2
inactive: [1] > 100 µM | [18] > 100 µM | [2] > 100 µM | [17] > 100 µM | [3] > 100 µM | [4] > 100 µM | [5] > 100 µM | [6] > 100 µM | [7] > 100 µM | [8] > 100 µM | [9] > 100 µM | [10] > 100 µM | [11] > 100 µM | [12] > 100 µM | [14] > 100 µM | [15] > 100 µM

NC(=S)N/N=C1/CCCC2CCCC[C@@H]12 (some centres undefined)
inactive: [1] > 100 µM | [2] > 100 µM | [17] > 100 µM | [3] > 100 µM | [19] 76.4 µM | [4] > 100 µM | [5] > 100 µM | [6] > 100 µM | [7] > 100 µM | [8] > 100 µM | [9] > 100 µM | [10] > 100 µM | [11] > 100 µM | [13] > 100 µM | [14] > 100 µM | [15] > 100 µM | [16] > 100 µM

C/N=C(\N)c1ccc(NC(=N)c2ccc(C(=N)Nc3ccc(/C(N)=N/C)cc3)cc2)cc1
inactive: [1] > 100 µM | [2] > 100 µM | [17] 76 µM | [3] > 100 µM | [4] > 100 µM | [5] > 100 µM | [6] > 100 µM | [7] > 100 µM | [8] > 100 µM | [9] > 100 µM | [10] > 100 µM | [11] > 100 µM | [12] > 100 µM | [14] > 100 µM | [15] > 100 µM | [16] > 100 µM

NC(=S)N/N=C\CC(O)(C(F)(F)F)C(F)(F)F
inactive: [1] > 10 µM | [2] > 10 µM | [17] > 10 µM | [3] > 10 µM | [19] > 10 µM | [4] > 10 µM | [5] > 10 µM | [6] > 10 µM | [7] > 10 µM | [9] > 10 µM | [10] > 10 µM | [11] > 10 µM | [12] > 10 µM | [13] > 10 µM | [14] > 10 µM | [15] > 10 µM | [16] > 10 µM
